From ChEMBL document CHEMBL6182926, “Design, Synthesis, and Biological Activity Evaluation of Deuterated Diphenyl Azole Alcohol-Based CYP51 Inhibitors” (J Med Chem, 2025)
≈ marks a conversion by molar mass, not a printed value.

Columns and labels:
[1] = Selectivity ratio, ratio of IC50 for cytotoxicity against human SH-SY5Y cells to MIC80 for antifungal activity against Candida albicans CPCC 400616; assay type: toxicity, cell-based
[2] = Half life in Sprague-Dawley rat at 10 mg/kg, po by LC-MS/MS analysis; assay type: ADME, organism-based; details: in vivo
[3] = (§1) Selectivity ratio, ratio of IC50 for cytotoxicity against human SH-SY5Y cells to MIC80 for antifungal activity against Candida albicans SC 5314; assay type: toxicity, cell-based
[4] = Metabolic stability in human liver microsomes assessed as compound remaining measured up to 60 mins by LC-MS/MS analysis; assay type: ADME, Microsome; details: liver microsomes, read-out: Activity
Cryptococcus neoformans [5] = assay: Antifungal activity against Cryptococcus neoformans CGMCC 2.3161 assessed as reduction in Lanosterol at 0.0125 ug/ml measured after 18 hrs incubation by gas chromatography-mass spectrometry (GCMS) analysis; assay type: functional; design: scale not given: the % may be the effect or the level left; details: dose 0.0125 µg/ml
Cryptococcus neoformans [6] = assay: Antifungal activity against Cryptococcus neoformans CGMCC 2.3161 assessed as reduction in Obtusifoliol at 0.125 ug/ml measured after 18 hrs incubation by gas chromatography-mass spectrometry (GCMS) analysis; assay type: functional; design: scale not given: the % may be the effect or the level left; details: dose 0.125 µg/ml
Candida albicans [7] = assay: Antifungal activity against Candida albicans SC5314 assessed as reduction in Eburicol at 0.05 ug/ml measured after 18 hrs incubation by gas chromatography-mass spectrometry (GCMS) analysis; assay type: functional; design: scale not given: the % may be the effect or the level left; details: dose 0.05 µg/ml
Cryptococcus neoformans [8] = assay: Antifungal activity against Cryptococcus neoformans CGMCC 2.3161 assessed as reduction in Eburicol at 0.125 ug/ml measured after 18 hrs incubation by gas chromatography-mass spectrometry (GCMS) analysis; assay type: functional; design: scale not given: the % may be the effect or the level left; details: dose 0.125 µg/ml
[9] = Toxicity in ICR mouse assessed as mortality at 500 mg/kg, po single dose measured for 7 days; assay type: organism-based; details: in vivo, 168 h, time 7 day
[10] = Cytotoxicity against human SH-SY5Y cells measured after 72 hrs by MTT assay; assay type: toxicity, cell-based
[11] = MRT (0 to infinity) in Sprague-Dawley rat at 3 mg/kg, iv by LC-MS/MS analysis; assay type: ADME, organism-based; details: in vivo
Nakaseomyces glabratus [12] = assay: Fungicidal activity against Clinical isolate Candida glabrata assessed as concentration of colonies (< 5) measured after 48 hrs incubation; assay type: functional
Cytochrome P450 3A4 = Cytochrome P450 3A4 (Homo sapiens, UniProt P08684); assay: Inhibition of CYP3A4 in human liver microsomes using testosterone as substrate measured after 10 mins by LC/MS/MS analysis; assay type: ADME, Microsome
Cryptococcus neoformans [13] = assay: Antifungal activity against Cryptococcus neoformans CGMCC 2.3161 assessed as reduction in ergosterol at 0.0125 ug/ml measured after 18 hrs incubation by gas chromatography-mass spectrometry (GCMS) analysis (reference value: 94.48%); assay type: functional; design: scale not given: the % may be the effect or the level left; details: dose 0.0125 µg/ml
Cryptococcus neoformans [14] = assay: Antifungal activity against Cryptococcus neoformans CGMCC 2.3161 assessed as reduction in 14alpha-methylsterols at 0.0125 ug/ml measured after 18 hrs incubation by gas chromatography-mass spectrometry (GCMS) analysis (reference value: 2.32%); assay type: functional; design: scale not given: the % may be the effect or the level left; details: dose 0.0125 µg/ml
[15] = Cmax in Sprague-Dawley rat at 3 mg/kg, iv by LC-MS/MS analysis; assay type: ADME, organism-based; details: in vivo
Candida albicans [16] = assay: Antifungal activity against Candida albicans SC5314 assessed as reduction in Lanosterol at 0.05 ug/ml measured after 18 hrs incubation by gas chromatography-mass spectrometry (GCMS) analysis; assay type: functional; design: scale not given: the % may be the effect or the level left; details: dose 0.05 µg/ml
Candida albicans [17] = assay: Antifungal activity against Candida albicans SC5314 assessed as reduction in 14alpha-methylsterols at 0.05 ug/ml measured after 18 hrs incubation by gas chromatography-mass spectrometry (GCMS) analysis (reference value: 0.69%); assay type: functional; design: scale not given: the % may be the effect or the level left; details: dose 0.05 µg/ml
[18] = Toxicity in ICR mouse assessed as change in body weight at 500 mg/kg, po single dose measured for 7 days; assay type: organism-based; details: in vivo, 168 h, time 7 day
Cryptococcus neoformans [19] = assay: Antifungal activity against Cryptococcus neoformans CGMCC 2.3161 assessed as reduction in other sterol at 0.125 ug/ml measured after 18 hrs incubation by gas chromatography-mass spectrometry (GCMS) analysis (reference value: 2.20%); assay type: functional; design: scale not given: the % may be the effect or the level left; details: dose 0.125 µg/ml
[20] = (§2) Selectivity ratio, ratio of IC50 for cytotoxicity against human SH-SY5Y cells to MIC80 for antifungal activity against Candida tropicalis CGMCC 2.3739; assay type: toxicity, cell-based
Nakaseomyces glabratus [21] = assay: Inhibition of biofilm formation in clinical isolate Candida glabrata assessed as inhibition of metabolic activity of biofilm measured after 24 hrs by XTT assay; assay type: functional
[22] = Subacute toxicity in ICR mouse assessed as mortality at 100 mg/kg, oral gavage for 14 consecutive days; assay type: organism-based; details: in vivo, 336 h, time 14 day
Cryptococcus neoformans [23] = assay: Antifungal activity against Cryptococcus neoformans CGMCC 2.3161 assessed as reduction in ergosterol at 0.125 ug/ml measured after 18 hrs incubation by gas chromatography-mass spectrometry (GCMS) analysis (reference value: 94.48%); assay type: functional; design: scale not given: the % may be the effect or the level left; details: dose 0.125 µg/ml
Candida albicans [24] = assay: Antifungal activity against Candida albicans SC5314 assessed as reduction in Obtusifoliol at 0.05 ug/ml measured after 18 hrs incubation by gas chromatography-mass spectrometry (GCMS) analysis; assay type: functional; design: scale not given: the % may be the effect or the level left; details: dose 0.05 µg/ml
[25] = Subacute toxicity in ICR mouse assessed as change in body weight at 100 mg/kg, oral gavage for 14 consecutive days; assay type: organism-based; details: in vivo, 336 h, time 14 day
Candida albicans [26] = assay: Antifungal activity against Candida albicans SC5314 assessed as reduction in ergosterol at 0.05 ug/ml measured after 18 hrs incubation by gas chromatography-mass spectrometry (GCMS) analysis (reference value: 96.72%); assay type: functional; design: scale not given: the % may be the effect or the level left; details: dose 0.05 µg/ml
Pichia kudriavzevii [27] = assay: Fungicidal activity against Candida krusei AS 2.1045 assessed as concentration of colonies (< 5) measured after 48 hrs incubation; assay type: functional
[28] = as §1; assay type: toxicity, cell-based; remark: listed apart in the source
Cryptococcus neoformans [29] = assay: Antifungal activity against Cryptococcus neoformans CGMCC 2.3161 assessed as reduction in 14alpha-methylsterols at 0.125 ug/ml measured after 18 hrs incubation by gas chromatography-mass spectrometry (GCMS) analysis (reference value: 2.32%); assay type: functional; design: scale not given: the % may be the effect or the level left; details: dose 0.125 µg/ml
[30] = as §2; assay type: toxicity, cell-based; remark: listed apart in the source
[31] = Toxicity in ICR mouse assessed as structural alteration in liver at 500 mg/kg, po single dose measured for 7 days by hematoxylin-eosin (H/E) staining analysis; assay type: organism-based; details: in vivo, 168 h, time 7 day
[32] = Selectivity ratio, ratio of IC50 for cytotoxicity against human SH-SY5Y cells to MIC80 for antifungal activity against Clinical isolate Candida glabrata; assay type: toxicity, cell-based
Pichia kudriavzevii [33] = assay: Antifungal activity against Candida krusei AS 2.1045 assessed as inhibition of visible growth; assay type: functional
[34] = Cytotoxicity against human HUVEC cells measured after 72 hrs by MTT assay; assay type: toxicity, cell-based
Cryptococcus neoformans [35] = assay: Fungicidal activity against Cryptococcus neoformans CGMCC 2.3161 assessed as concentration of colonies (< 5) measured after 48 hrs incubation; assay type: functional
Cryptococcus neoformans [36] = assay: Antifungal activity against Cryptococcus neoformans CGMCC 2.3161 assessed as reduction in Obtusifoliol at 0.0125 ug/ml measured after 18 hrs incubation by gas chromatography-mass spectrometry (GCMS) analysis; assay type: functional; design: scale not given: the % may be the effect or the level left; details: dose 0.0125 µg/ml
Candida albicans [37] = assay: Antifungal activity against Candida albicans SC 5314 assessed as inhibition of visible growth; assay type: functional
Mus musculus = assay: In vivo antifungal activity against Candida albicans SC5314 infected in ICR mouse model assessed as mouse survival at 5 mg/kg, oral gavage measured for 21 days post infection; assay type: functional; details: 504 h, time 21 day
[38] = AUC (0 to infinity) in Sprague-Dawley rat at 3 mg/kg, iv by LC-MS/MS analysis; assay type: ADME, organism-based; details: in vivo

Sequence of Cytochrome P450 3A4 (P08684 whole entry): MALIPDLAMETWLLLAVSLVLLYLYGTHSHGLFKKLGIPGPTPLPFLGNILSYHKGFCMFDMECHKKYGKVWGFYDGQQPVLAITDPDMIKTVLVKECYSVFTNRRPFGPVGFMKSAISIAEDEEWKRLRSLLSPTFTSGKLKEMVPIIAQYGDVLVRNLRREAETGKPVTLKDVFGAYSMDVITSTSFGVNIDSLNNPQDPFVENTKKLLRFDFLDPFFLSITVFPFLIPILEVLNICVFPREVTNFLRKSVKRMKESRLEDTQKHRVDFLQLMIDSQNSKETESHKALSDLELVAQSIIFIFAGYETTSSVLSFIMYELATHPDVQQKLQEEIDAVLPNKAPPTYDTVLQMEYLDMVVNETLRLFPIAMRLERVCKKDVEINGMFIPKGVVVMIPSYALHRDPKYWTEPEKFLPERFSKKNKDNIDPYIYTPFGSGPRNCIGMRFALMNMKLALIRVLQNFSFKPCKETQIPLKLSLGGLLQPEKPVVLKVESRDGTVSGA

## [2H]C([2H])([2H])N(Cc1ccc(-c2ccc(OC(F)(F)F)cc2)cc1)[C@H](C)[C@](O)(Cn1cncn1)c1ccc(F)cc1F
[1]
  selectivity ratio: > 100
[2]
  half-life: 4.42 h
[3]
  selectivity ratio: > 100
[4]
  remaining at 1 h: 34.4%
Cryptococcus neoformans [5]
  Activity: 8.58%
Cryptococcus neoformans [6]
  Activity: 26.05%
Candida albicans [7]
  Activity: 46.42%
Cryptococcus neoformans [8]
  Activity: 47.42%
[9]
  Activity: Non-toxic
[10]
  IC50 at 72 h: 25.2 µM
[11]
  MRT inf: 2.32 h
Nakaseomyces glabratus [12]
  MFC: 0.5 µg/mL (≈ 0.934 µM)
Cytochrome P450 3A4
  IC50: 5.11 µM
Cryptococcus neoformans [13]
  Activity: 62.56%
Cryptococcus neoformans [14]
  Activity: 3.13%
[15]
  Cmax: 2290 ng/mL
Candida albicans [16]
  Activity: 21.92%
Candida albicans [17]
  Activity: 7.73%
[18]
  Activity: Non-toxic
Cryptococcus neoformans [19]
  Activity: 11.5%
[20]
  selectivity ratio: > 100
Nakaseomyces glabratus [21]
  MIC50: 0.062 µg/mL (≈ 0.116 µM)
[22]
  Activity: Non-toxic
Cryptococcus neoformans [23]
  Activity: 5.68%
Candida albicans [24]
  Activity: 18%
[25]
  Activity: Non-toxic
Candida albicans [26]
  Activity: 3.68%
Pichia kudriavzevii [27]
  MFC: 0.125 µg/mL (≈ 0.233 µM)
[28]
  selectivity ratio: > 100
Cryptococcus neoformans [29]
  Activity: 3.21%
[30]
  selectivity ratio: > 100
[31]
  Activity: Non-toxic
[32]
  selectivity ratio: > 100
Pichia kudriavzevii [33]
  MIC80: 0.012 µg/mL (≈ 0.0224 µM)
[34]
  IC50 at 72 h: 23.5 µM
Cryptococcus neoformans [35]
  MFC: 0.062 µg/mL (≈ 0.116 µM)
Cryptococcus neoformans [36]
  Activity: 5.76%
Candida albicans [37]
  MIC80: 0.006 µg/mL (≈ 0.0112 µM)
Mus musculus
  survival at 5 mg/kg: 100%
[38]
  AUC: 2286 ng·h/mL
